Assay results reported in ChEMBL document CHEMBL3137667, “[Drug-induced liver injury; fourteenth updated edition of the bibliographic database of liver injuries and related drugs]” (Gastroenterol Clin Biol, 2004).
Structures can show the parent of a compound that is named as a salt.

Experiments:
[1] = Highest frequency of moderate liver toxicity observed during clinical trials, expressed as a percentage. [column '% BIOL' in source]; conditions: human
[2] = Highest frequency of acute liver toxicity observed during clinical trials, expressed as a percentage. [column '% AIGUE' in source]; conditions: human
[3] = Times to onset, minimal and maximal, observed in the indexed observations. [column 'DELAI' in source]; conditions: human
[4] = human, serum
[5] = human, serum; remark: listed apart in the source
[6] = human
[7] = human; remark: listed apart in the source
[8] = human; remark: listed apart in the source
[9] = human, serum, 4383 h
[10] = human; remark: listed apart in the source
[11] = human; remark: listed apart in the source
[12] = human; remark: listed apart in the source
[13] = human; remark: listed apart in the source
[14] = human; remark: listed apart in the source
[15] = human; remark: listed apart in the source
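For Hepatotoxicity (association with vascular disease) in this document: count of indexed literature references reporting vascular liver injury in humans, e.g. peliosis hepatitis, hepatic veno-occlusive disease or Budd-Chiari syndrome.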
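For Hepatotoxicity (benign tumour) in this document: value is a count of indexed literature references citing a benign tumour confirmed by histopathology.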
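For Hepatotoxicity (choleostasis) in this document: human cholestatic liver injury, shown by histopathology or by peak ALT or AST elevation over alkaline phosphatase ratio below 2, value counts indexed literature reports.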
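For Hepatotoxicity (chronic liver disease) in this document: chronic liver injury confirmed by histopathology or persistently raised serum aminotransferase activity beyond 6 months, value given as the count of indexed literature references.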
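For Hepatotoxicity (cirrhosis) in this document: value is a count of indexed literature references reporting cirrhosis confirmed by histopathology.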
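For Hepatotoxicity (cytolytic) in this document: human cytolytic liver injury, shown by histopathology or by a ratio above 5 of peak ALT or AST elevation to alkaline phosphatase elevation, value counts indexed references.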
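For Hepatotoxicity (granulomatous hepatitis) in this document: value is a count of indexed literature references reporting granulomatous liver disease confirmed by histopathology.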
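For Hepatotoxicity (malignant tumour) in this document: malignant tumour confirmed by histopathology, value gives the count of indexed literature references reporting it.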
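For Hepatotoxicity (severe hepatitis) in this document: human clinical data: severe hepatitis, meaning potentially life-threatening liver failure or clinically observed cases, the value counts how many indexed literature references report it.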
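For Hepatotoxicity (steatosis) in this document: steatosis confirmed by histopathology, value is the count of indexed references.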

| Structure (SMILES) | Hepatotoxicity (moderate) [1] [%] | Hepatotoxicity (acute) [2] [%] | Hepatotoxicity (time to onset) [3] | Hepatotoxicity (moderate) [4] | Hepatotoxicity (acute) [5] | Hepatotoxicity (cytolytic) [6] | Hepatotoxicity (choleostasis) [7] | Hepatotoxicity (severe hepatitis) [8] | Hepatotoxicity (chronic liver disease) [9] | Hepatotoxicity (cirrhosis) [10] | Hepatotoxicity (granulomatous hepatitis) [11] | Hepatotoxicity (association with vascular disease) [12] | Hepatotoxicity (steatosis) [13] | Hepatotoxicity (malignant tumour) [14] | Hepatotoxicity (benign tumour) [15] | further results |
| --- | --- | --- | --- | --- | --- | --- | --- | --- | --- | --- | --- | --- | --- | --- | --- | --- |
| Nc1ccc(C(=O)[O-])cc1.[K+] [AMINOBENZOATE POTASSIUM] | 38 | 0 | 2 months | 1 | 1 | 1 | 0 | 0 | 0 | 0 | 0 | 0 | 0 | 0 | 0 | – |
| Nc1ccc(C(=O)O)cc1 [AMINOBENZOIC ACID] | 35 | 0 | 4 weeks - 2 months | 1 | 3 | 2 | 0 | 0 | 0 | 0 | 0 | 0 | 0 | 0 | 0 | – |
| CCN1CCCC1CNC(=O)c1cc(S(=O)(=O)CC)c(N)cc1OC (stereo not given) [AMISULPRIDE] | 0 | 0 | 2 weeks | 1 | 0 | 0 | 0 | 0 | 0 | 0 | 0 | 0 | 0 | 0 | 0 | – |
| CC(=O)Nc1ccc(/C=N/NC(N)=S)cc1 [AMITHIOZONE] | 18 | 2.5 | 1.5 months - 6 months | 4 | 6 | 5 | 2 | 2 | 0 | 1 | 0 | 0 | 2 | 0 | 0 | – |
| CN1CCN(C(=S)Nc2ccc(Nc3ccc([N+](=O)[O-])cc3)cc2)CC1 [AMOCARZINE] | 0 | 0 | 4 days - 2 months | 1 | 0 | 0 | 0 | 0 | 0 | 0 | 0 | 0 | 0 | 0 | 0 | – |
| Clc1ccc2c(c1)C(N1CCNCC1)=Nc1ccccc1O2 [AMOXAPINE] | 0 | 0 | 4 days - 18 days | 2 | 2 | 2 | 0 | 0 | 0 | 0 | 0 | 0 | 0 | 0 | 0 | – |
| N#C[C@H](O[C@@H]1O[C@H](CO[C@@H]2O[C@H](CO)[C@@H](O)[C@H](O)[C@H]2O)[C@@H](O)[C@H](O)[C@H]1O)c1ccccc1 [AMYGDALIN] | 0 | 0 | 2 days | 0 | 0 | 0 | 0 | 1 | 0 | 0 | 0 | 0 | 0 | 0 | 0 | – |
| C=CCC(C(=O)NC(N)=O)C(C)C (stereo not given) [APRONAL] | 0 | 0 | 2 days - 2 years | 0 | 2 | 0 | 0 | 0 | 0 | 0 | 2 | 0 | 0 | 0 | 0 | – |
| [AsH3] [ARSENIC] | – | – | 46 years | 4 | 1 | – | – | – | 1 | 1 | – | 0 | 0 | 1 | 0 | Hepatotoxicity (moderate) ([1]; Liver): 35.7%; Hepatotoxicity (acute) ([2]; Liver): 47.6%; Hepatotoxicity (cytolytic) ([6]; Liver): 0; Hepatotoxicity (choleostasis) ([7]; Liver): 0; Hepatotoxicity (severe hepatitis) ([8]; Liver): 0; Hepatotoxicity (granulomatous hepatitis) ([11]; Liver): 0 |
| C[C@H]1[C@H](OC(=O)CCC(=O)O)O[C@@H]2O[C@@]3(C)CC[C@H]4[C@H](C)CC[C@@H]1[C@@]24OO3 [ARTESUNATE] | 0 | 6.7 | 48 days | 0 | 1 | 1 | 0 | 0 | 0 | 0 | 0 | 0 | 0 | 0 | 0 | – |
| CC(C)NCC(O)COc1ccc(CC(N)=O)cc1 (stereo not given) [ATENOLOL] | 10 | 0 | 2 days - 9 months | 1 | 2 | 1 | 1 | 0 | 0 | 0 | 0 | 0 | 1 | 0 | 0 | – |
| CCNc1cccnc1N1CCN(C(=O)c2cc3cc(OC)ccc3[nH]2)CC1 [ATEVIRDINE MESYLATE] | 0 | 6.7 | 3 weeks | 0 | 1 | 0 | 0 | 0 | 0 | 0 | 0 | 0 | 0 | 0 | 0 | – |
| C[C@H]1[C@H](NC(=O)/C(=N\OC(C)(C)C(=O)O)c2csc(N)n2)C(=O)N1S(=O)(=O)O [AZTREONAM] | – | – | 4 days | 104 | 1 | 1 | 0 | – | 0 | 0 | 0 | 0 | 0 | 0 | 0 | Hepatotoxicity (moderate) ([1]; Liver): 60%; Hepatotoxicity (acute) ([2]; Liver): 0%; Hepatotoxicity (severe hepatitis) ([8]; Liver): 0 |
| NCC(CC(=O)O)c1ccc(Cl)cc1 (stereo not given) [BACLOFEN] | 0 | 0 | 3 weeks - 2 months | 1 | 3 | 1 | 1 | 0 | 0 | 0 | 0 | 0 | 0 | 0 | 0 | – |
| O=C(O)CCNC(=O)c1ccc(/N=N/c2ccc(O)c(C(=O)O)c2)cc1 [BALSALAZIDE] | 0 | 0 | 8 days | 0 | 1 | 0 | 1 | 0 | 0 | 0 | 0 | 0 | 0 | 0 | 0 | – |
